Experimental data: PubChem BioAssay (NCI)
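Compound exposure: 48 hours, 5 concentrations, 96-well plates. TGI: concentration producing complete growth inhibition.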

How the values were obtained:
Assay in all cases: inhibition of tumour cell growth, NCI panel, 48 h
[1] = test system: 786-0 renal
[2] = test system: A498 renal
[3] = test system: A549 NSCLC
[4] = test system: ACHN renal
[5] = test system: CAKI-1 renal
[6] = test system: CCRF-CEM leukemia
[7] = test system: COLO 205 colon
[8] = test system: DLD-1 colon
[9] = test system: DMS 114 small cell lung
[10] = test system: DMS 273 small cell lung
[11] = test system: EKVX NSCLC
[12] = test system: HCC-2998 colon
[13] = test system: HCT-116 colon
[14] = test system: HCT-15 colon
[15] = test system: HL-60(TB) leukemia
[16] = test system: HOP-18 NSCLC
[17] = test system: HOP-62 NSCLC
[18] = test system: HOP-92 NSCLC
[19] = test system: HT29 colon
[20] = test system: IGROV1 ovarian
[21] = test system: K-562 leukemia
[22] = test system: KM12 colon
[23] = test system: KM20L2 colon
[24] = test system: LXFL 529 NSCLC
[25] = test system: M14 melanoma
[26] = test system: M19-MEL melanoma
[27] = test system: MALME-3M melanoma
[28] = test system: MOLT-4 leukemia
[29] = test system: NCI-H23 lung
[30] = test system: NCI-H460 lung
[31] = test system: NCI-H522 lung
[32] = test system: OVCAR-3 ovarian
[33] = test system: OVCAR-5 ovarian
[34] = test system: OVCAR-8 ovarian
[35] = test system: RPMI-8226 leukemia
[36] = test system: RXF 393 renal
[37] = test system: SF-268 CNS
[38] = test system: SF-295 CNS
[39] = test system: SF-539 CNS
[40] = test system: SK-MEL-2 melanoma
[41] = test system: SK-MEL-28 melanoma
[42] = test system: SK-MEL-5 melanoma
[43] = test system: SK-OV-3 ovarian
[44] = test system: SN12C renal
[45] = test system: SNB-19 CNS
[46] = test system: SNB-75 CNS
[47] = test system: SNB-78 CNS
[48] = test system: SW-620 colon
[49] = test system: TK-10 renal
[50] = test system: U251 CNS
[51] = test system: UACC-257 melanoma
[52] = test system: UACC-62 melanoma
[53] = test system: UO-31 renal
[54] = test system: XF 498 CNS
[55] = test system: LOX IMVI melanoma
[56] = test system: NCI-H226 lung
[57] = test system: BT-549 breast
[58] = test system: DU-145 prostate
[59] = test system: HS 578T breast
[60] = test system: MCF7 breast
[61] = test system: MDA-MB-231 breast
[62] = test system: MDA-MB-435
[63] = test system: MDA-N
[64] = test system: NCI/ADR-RES ovarian
[65] = test system: OVCAR-4 ovarian
[66] = test system: PC-3 prostate
[67] = test system: SR leukemia
[68] = test system: T-47D breast

## Cn1cc2ccccc2c1-c1nc(F)nc(Oc2ccc3c(c2)CC[C@@H]2C3CC[C@@]3(C)C2C[C@H](O)[C@@H]3O)n1 (some centres not stated)
[1]
  TGI: 31.3 µM
[2]
  TGI: 47 µM
[3]
  TGI: 34.1 µM
[4]
  TGI: 47.6 µM
[5]
  TGI: 34.8 µM
[6]
  TGI: 6.43 µM
[7]
  TGI: 32.4 µM
[8]
  TGI: 22.1 µM
[9]
  TGI: 25 µM
[10]
  TGI: 22 µM
[11]
  TGI: 40.7 µM
[12]
  TGI: 29.9 µM
[13]
  TGI: 28.1 µM
[14]
  TGI: 24.6 µM
[15]
  TGI: 43.7 µM
[16]
  TGI: 54.8 µM
[17]
  TGI: 18.7 µM
[18]
  TGI: 55.5 µM
[19]
  TGI: 40.5 µM
[20]
  TGI: 45.4 µM
[21]
  TGI: 42.8 µM
[22]
  TGI: 36.1 µM
[23]
  TGI: 29.4 µM
[24]
  TGI: 27.4 µM
[25]
  TGI: 32.2 µM
[26]
  TGI: 41.9 µM
[27]
  TGI: 75.4 µM
[28]
  TGI: 26.1 µM
[29]
  TGI: 42.9 µM
[30]
  TGI: 83 µM
[31]
  TGI: 27.2 µM
[32]
  TGI: 78.8 µM
[33]
  TGI: 39.2 µM
[34]
  TGI: 34.1 µM
[35]
  TGI: 41.9 µM
[36]
  TGI: 66.6 µM
[37]
  TGI: 36.8 µM
[38]
  TGI: 33.9 µM
[39]
  TGI: 28.9 µM
[40]
  TGI: 38.1 µM
[41]
  TGI: 38.9 µM
[42]
  TGI: 36.8 µM
[43]
  TGI: 52.2 µM
[44]
  TGI: 31.6 µM
[45]
  TGI: 29.5 µM
[46]
  TGI: 41.1 µM
[47]
  TGI: 54.2 µM
[48]
  TGI: 15.8 µM
[49]
  TGI: 54.6 µM
[50]
  TGI: 23.5 µM
[51]
  TGI: 81.6 µM
[52]
  TGI: 40.6 µM
[53]
  TGI: 32.3 µM
[54]
  TGI: 60.3 µM

## Cc1cc(=O)n(-c2cc3cccccc-3n2)[nH]1
[1]
  TGI: 18 µM
[2]
  TGI: 46.9 µM
[3]
  TGI: > 100 µM
[4]
  TGI: 50.3 µM
[6]
  TGI: > 100 µM
[7]
  TGI: 43.6 µM
[8]
  TGI: > 100 µM
[9]
  TGI: 7.73 µM
[11]
  TGI: 96.7 µM
[12]
  TGI: 48.7 µM
[13]
  TGI: 5.27 µM
[14]
  TGI: 25.5 µM
[15]
  TGI: 11.6 µM
[16]
  TGI: 85.2 µM
[17]
  TGI: > 100 µM
[19]
  TGI: 35.6 µM
[20]
  TGI: 8.45 µM
[21]
  TGI: 15.5 µM
[22]
  TGI: 91.5 µM
[23]
  TGI: > 100 µM
[55]
  TGI: > 100 µM
[24]
  TGI: 16.9 µM
[25]
  TGI: 19.6 µM
[26]
  TGI: 22.3 µM
[27]
  TGI: 9.84 µM
[28]
  TGI: > 100 µM
[56]
  TGI: 44.4 µM
[29]
  TGI: 47.4 µM
[30]
  TGI: 16.1 µM
[31]
  TGI: 6.86 µM
[32]
  TGI: 8.23 µM
[33]
  TGI: > 100 µM
[35]
  TGI: 67.2 µM
[36]
  TGI: 11.2 µM
[38]
  TGI: > 100 µM
[39]
  TGI: 59 µM
[41]
  TGI: > 100 µM
[42]
  TGI: 5.32 µM
[43]
  TGI: 47 µM
[44]
  TGI: 62.3 µM
[45]
  TGI: > 100 µM
[46]
  TGI: 31.7 µM
[48]
  TGI: 13 µM
[49]
  TGI: > 100 µM
[50]
  TGI: 4.96 µM
[51]
  TGI: 48.3 µM
[52]
  TGI: 7.61 µM
[53]
  TGI: 48.3 µM
[54]
  TGI: 7.46 µM

## CCc1nc2ccc(N=Nc3c(O)ccc4ccccc34)cc2[nH]1
[1]
  TGI: 37.7 µM
[2]
  TGI: 50.6 µM
[3]
  TGI: 55.8 µM
[4]
  TGI: 31.5 µM
[57]
  TGI: 36.2 µM
[5]
  TGI: 40.2 µM
[6]
  TGI: 26.4 µM
[7]
  TGI: 39 µM
[8]
  TGI: 57.3 µM
[9]
  TGI: 35.1 µM
[10]
  TGI: 35.3 µM
[58]
  TGI: 31.2 µM
[11]
  TGI: 36.1 µM
[12]
  TGI: 29.7 µM
[13]
  TGI: 30.8 µM
[14]
  TGI: 33.4 µM
[15]
  TGI: 29.8 µM
[17]
  TGI: 43.6 µM
[18]
  TGI: 42.7 µM
[59]
  TGI: 48.6 µM
[19]
  TGI: 44.1 µM
[20]
  TGI: 36.8 µM
[21]
  TGI: > 66.1 µM
[22]
  TGI: 31.9 µM
[23]
  TGI: 36.9 µM
[55]
  TGI: 28.8 µM
[24]
  TGI: 24.5 µM
[25]
  TGI: 35.1 µM
[26]
  TGI: 33.8 µM
[27]
  TGI: 33.6 µM
[60]
  TGI: 42.2 µM
[61]
  TGI: 49.5 µM
[62]
  TGI: 67.5 µM
[63]
  TGI: 51.5 µM
[28]
  TGI: 81.1 µM
[56]
  TGI: 41.1 µM
[29]
  TGI: 49.2 µM
[30]
  TGI: 36.8 µM
[31]
  TGI: 50.3 µM
[64]
  TGI: 54.8 µM
[32]
  TGI: 37.2 µM
[65]
  TGI: 28.4 µM
[33]
  TGI: 34.9 µM
[34]
  TGI: 21.6 µM
[66]
  TGI: 37.5 µM
[35]
  TGI: > 78 µM
[36]
  TGI: 25.6 µM
[37]
  TGI: 53.3 µM
[38]
  TGI: 43.5 µM
[39]
  TGI: 35.4 µM
[40]
  TGI: 37.9 µM
[41]
  TGI: 41.5 µM
[42]
  TGI: 40 µM
[43]
  TGI: > 62 µM
[44]
  TGI: 38.2 µM
[45]
  TGI: > 66 µM
[46]
  TGI: 37.5 µM
[47]
  TGI: 32.7 µM
[67]
  TGI: 24.7 µM
[48]
  TGI: 54.4 µM
[68]
  TGI: 59.7 µM
[49]
  TGI: 32.6 µM
[50]
  TGI: 39.9 µM
[51]
  TGI: 29.4 µM
[52]
  TGI: 35.3 µM
[53]
  TGI: 34.5 µM

## O=C1c2ccccc2C2CCC1c1ccccc12 (configuration not stated)
[1]
  TGI: > 100 µM
[2]
  TGI: > 100 µM
[3]
  TGI: > 100 µM
[4]
  TGI: > 100 µM
[5]
  TGI: > 100 µM
[6]
  TGI: > 100 µM
[7]
  TGI: 46.8 µM
[8]
  TGI: > 100 µM
[9]
  TGI: 57 µM
[10]
  TGI: 71.4 µM
[11]
  TGI: > 100 µM
[12]
  TGI: > 100 µM
[13]
  TGI: 46.4 µM
[14]
  TGI: > 100 µM
[15]
  TGI: 38 µM
[16]
  TGI: > 100 µM
[17]
  TGI: > 100 µM
[18]
  TGI: 72.2 µM
[19]
  TGI: > 100 µM
[20]
  TGI: > 100 µM
[21]
  TGI: > 100 µM
[22]
  TGI: > 100 µM
[23]
  TGI: > 100 µM
[55]
  TGI: > 100 µM
[24]
  TGI: > 100 µM
[25]
  TGI: > 100 µM
[26]
  TGI: 96.1 µM
[27]
  TGI: 51.8 µM
[28]
  TGI: 45.7 µM
[56]
  TGI: > 100 µM
[29]
  TGI: 65 µM
[30]
  TGI: > 100 µM
[31]
  TGI: 70.6 µM
[32]
  TGI: > 100 µM
[65]
  TGI: 76.1 µM
[33]
  TGI: > 100 µM
[34]
  TGI: > 100 µM
[35]
  TGI: 57 µM
[36]
  TGI: 78 µM
[37]
  TGI: > 100 µM
[38]
  TGI: > 100 µM
[39]
  TGI: > 100 µM
[40]
  TGI: 94 µM
[41]
  TGI: > 100 µM
[42]
  TGI: 34.1 µM
[43]
  TGI: > 100 µM
[44]
  TGI: > 100 µM
[45]
  TGI: > 100 µM
[46]
  TGI: > 100 µM
[47]
  TGI: > 100 µM
[67]
  TGI: 58.2 µM
[48]
  TGI: > 100 µM
[49]
  TGI: 93.9 µM
[50]
  TGI: > 100 µM
[51]
  TGI: 76.6 µM
[52]
  TGI: > 100 µM
[53]
  TGI: 70.5 µM
[54]
  TGI: 91.6 µM
